Consider 43 molecules from paper PMC6644994, “Chemical Ligand Space of Cereblon” (ACS Omega, 2018).

“Also recorded” adds a separate entry of the source. Read-outs that look alike come from different tables or passages of the source.

Broadly, the Ki is a dissociation constant, usually derived from enzyme kinetics or from competition with a known ligand.

Series [1] concerns the target MsCI4 (Magnetospirillum gryphiswaldense, UniProt A4TVL0, W36F/W59F). The experiment in a line: biochemical. The series is classed as binding.
Series [2] deals with zebrafish embryos (cereblon-mediated pectoral fin malformation). Put plainly: Zebrafish pectoral fin deformity assay.
For series [3], the target named is T1, MsCI4 (Magnetospirillum gryphiswaldense, UniProt A4TVL0).
T1 sequence (A4TVL0 1-124): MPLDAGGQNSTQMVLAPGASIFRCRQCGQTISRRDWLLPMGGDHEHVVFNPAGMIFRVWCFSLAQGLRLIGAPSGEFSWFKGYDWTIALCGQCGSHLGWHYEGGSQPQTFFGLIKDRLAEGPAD
Put plainly: X-ray crystallography of MsCI4·ligand crystals obtained by soaking. The series is classed as binding. More on the design: key to binding verified via crystallography (symbol in Table S1): X-tal: binding verified via crystallography. The settings on record: for binding verified via crystallography (in words): MsCI4·thalidomide crystals soaked with solid rolipram. The text has this:
In a next step, we characterized the binding of representative compounds via X-ray crystallography. […] (II) The structures with ethosuximide, hydantoin, 2-thiohydantoin, and thiazolidine-2,4-dione verify that imides with 5-membered rings have the same basic binding mode as 6-membered rings. (III) The binding mode of γ-butyrolactam, δ-valerolactam and rolipram verifies that lactams have a binding mode analogous to imides, with their carbonyl group occupying position d. […] Importantly, in a direct comparison with the crystal structure of the human thalidomide-binding domain, none of the protruding moieties of the effectors is interacting or in contact with any nonconserved amino acid side chain, such that their binding modes are not influenced by species-specific differences (Figure S2).
After 40 h of soaking, these crystals were loop-mounted and flash-cooled in liquid nitrogen. Data were collected at 100 K and a wavelength of 1 Å on a PILATUS 6M-F detector at beamline X10SA of the Swiss Light Source (PSI, Villigen, Switzerland). Diffraction images were indexed, integrated, and scaled using XDS.[34] […] Data collection and refinement statistics are summarized together with PDB accession codes in Table S2. All molecular depictions were prepared using MolScript,[37] BobScript,[38] and Raster3D.[39]

Series [4] concerns zebrafish embryos (cereblon-mediated pectoral fin malformation). The settings on record: cited from earlier work.
Setting [5] is: Table S1, affinity for MsCI4, FRET assay, read-out: Ki.
Setting [6] is: zebrafish embryos, 400 μM, 75 h post fertilization.

Sequence of MsCI4 (Magnetospirillum gryphiswaldense, UniProt A4TVL0, W36F/W59F) (A4TVL0 entry or part of it W36F/W59F): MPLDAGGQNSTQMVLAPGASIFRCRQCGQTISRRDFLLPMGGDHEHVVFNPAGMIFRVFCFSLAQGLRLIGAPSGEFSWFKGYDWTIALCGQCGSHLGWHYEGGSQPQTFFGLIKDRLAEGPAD

`O=C1CCCCCCN1` [1-Azo-2-Cyclooctanone]: the Ki on MsCI4 [1] (setting [5]) is over 1000 µM.
Molecule `O=C1CNC(=S)N1` [2-Thiohydantoin] displayed a Ki at MsCI4 [1] of 13 ± 1.3 µM.
For `CC1(C)OC(=O)NC1=O` [5,5-Dimethyl-oxazolidine-2,4-dione], on MsCI4 [1], the Ki is over 1000 µM. Moreover, on MsCI4 [1] (FRET assay), the “binding to MsCI4 in the FRET assay (in words)” value (from here on “binding to MsCI4”) is “no detectable binding”.
For `CCC1(C)NC(=O)NC1=O` (stereo not drawn) [5-Ethyl-5-methyl-hydantoin], in that order: over 1000 µM and “no binding was detectable”.
As for `CC1CCC(=O)N1` (stereo not drawn) [5-Methylpyrrolidin-2-one], the Ki at MsCI4 [1] was found to be 19 ± 6 µM.
In the case of `CC(N)=O` [Acetamide], the “binding to MsCI4” value at MsCI4 [1] (FRET assay) was “could not detect any binding”. The Ki on MsCI4 [1] (setting [5]) was over 1000 µM.
At MsCI4 [1], `CCC1(c2ccc(N)cc2)CCC(=O)NC1=O` (stereo not drawn) [Aminoglutethimide] returned a Ki of 39 ± 3.8 µM.
For the molecule `O=C1CCN1` [Azetidin-2-one], the Ki on MsCI4 [1] (setting [5]) was 77 ± 11 µM.
Regarding `O=C1CC(=O)NC(=O)N1` [Barbiturate], the “pectoral fin deformity / teratogenic effect” value in series [2] (setting [6]) is given as “no effect; also recorded: does not cause any effects”. The Ki at MsCI4 [1] is over 1000 µM. For the same molecule, the “binding to MsCI4” value on MsCI4 [1] (FRET assay) is on record as “abolished binding”.
Regarding `CN1CC(=O)NC1=N` [Creatinine, 2-Imino-N-methylhydantoin], the Ki on MsCI4 [1] was over 1000 µM.
In the case of `C[C@@H]1C[C@@H]([C@H](O)CC2CC(=O)NC(=O)C2)C(=O)[C@@H](C)C1` [Cycloheximide], the Ki at MsCI4 [1] is over 1000 µM. In addition, the “binding to MsCI4” value at MsCI4 [1] (FRET assay) was “abolished binding”.
Consider `Nc1cc[nH]c(=O)n1` [Cytosine], for which, at MsCI4 [1], the Ki is over 1000 µM.
Same read-out and setting: for `O=c1ccn([C@H]2C[C@H](O)[C@@H](CO)O2)c(=O)[nH]1` [Deoxyuridine] the value was 15 ± 1.6 µM; for `O=C1CCNC(=O)N1` [Dihydrouracil, Hexahydropyrimidine-2,4-dione], 88 ± 6.8 µM; for `CCC1(C)CC(=O)NC1=O` (stereo not drawn) [Ethosuximide, 3-Ethyl-3-methylsuccinimide], 136 ± 11.6 µM.
Same read-out and setting: for `O=C1CCCC(=O)O1` [Glutaric Anhydride] the value was over 1000 µM.
On to `O=C1CCCC(=O)N1` [Glutarimide, Piperidine-2,6-dione], for which, in series [2] (setting [6]), the “effect on pectoral fin deformity of injecting zcrbnYW/AA mRNA (thalidomide-insensitive cereblon mutant)” value is on record as “alleviated” and the “pectoral fin deformity / teratogenic effect” value is given as “strongest effect; also recorded: cause developmental defects”.
On to `O=C1CNC(=O)N1` [Hydantoin, Imidazolidine-2,4-dione], for which affinity on MsCI4 [1] was put at a Ki of 43 ± 10.7 µM.
Regarding `COc1ccc(C2CNC(=O)C2)cc1OCCCN1CCC(C(=O)c2ccc(F)cc2)CC1` (stereo not drawn) [Lidanserin], affinity at MsCI4 [1] was put at a Ki of 25 ± 8.5 µM.
In the case of `CC(=O)NCCN` [N-(2-Aminoethyl)acetamide], at MsCI4 [1], the Ki is over 1000 µM. For the same molecule, on MsCI4 [1] (FRET assay), the “binding to MsCI4” value is on record as “could not detect any binding”.
On to `CC(=O)NC(N)=O` [N-Acetylurea], for which the “binding to MsCI4” value on MsCI4 [1] (FRET assay) is given as “detectable”. Besides, the Ki on MsCI4 [1] (printed in figures and text, FRET assay, read-out: Experimental Ki values for MsCI4) came to 522 µM.
As to `CN1CC(=O)NC1=O` [N-Methylhydantoin], at MsCI4 [1], the Ki is 16 ± 1.3 µM.
Molecule `CC(=O)NCCCCC(N)C(=O)O` (stereo not drawn) [N-ε-Acetyllysine, 2-azaniumyl-6-acetamidohexanoate] yielded a Ki on MsCI4 [1] of over 1000 µM. For the same molecule, at MsCI4 [1] (FRET assay), the “binding to MsCI4” value is “could not detect any binding”.
Turning to `NC(=O)NC(=O)Cc1ccccc1` [Phenylacetylurea], at MsCI4 [1] (FRET assay), the “binding to MsCI4” value is on record as “did not bind”. The Ki on MsCI4 [1] (setting [5]) was over 1000 µM.
In turn, `C1CCNCC1` [Piperidine] gave a Ki at MsCI4 [1] of over 1000 µM.
In the case of `O=c1[nH]cc([C@@H]2O[C@H](CO)[C@@H](O)[C@H]2O)c(=O)[nH]1` [Pseudouridine], at MsCI4 [1], the Ki is over 1000 µM. Also, the “binding to MsCI4” value at MsCI4 [1] (FRET assay) is “not detectable; also recorded: no detectable binding”.
Regarding `S=C1CCCN1` [Pyrrolidine-2-thione], the Ki at MsCI4 [1] is over 1000 µM.
For `C1CCNC1` [Pyrrolidine], the Ki on MsCI4 [1] (setting [5]) is over 1000 µM.
Consider `COc1ccc(C2CNC(=O)C2)cc1OC1CCCC1` (stereo not drawn) [Rolipram], for which the figures for the “binding verified via crystallography (in words)” value at MsCI4 [3] and at MsCI4 [3] (listed as rolipram) were “binding was confirmed via crystallography” and “could verify its binding via crystallography; also recorded: verified by crystallography”, respectively. In addition, the “binding verified via crystallography (symbol in Table S1)” value at MsCI4 [3] (Table S1) is given as “X-tal”.
Molecule `O=C1CCC(=O)O1` [Succinic Anhydride] registered a Ki at MsCI4 [1] of over 1000 µM.
`O=C1CCC(=O)N1` [Succinimide, Pyrrolidine-2,5-dione] returned a Ki at MsCI4 [1] of 4.3 ± 0.5 µM.
With `O=C1CCC(N2C(=O)c3ccccc3C2=O)C(=O)N1` (stereo not drawn) [Thalidomide], the pectoral fin phenotype result in series [2] (zebrafish, 200 μM) is “not clearly identifiable”. In series [4] (zebrafish embryos), the “pectoral fin development in zebrafish embryos” value is “stunted pectoral fins”.
The molecule `O=C1CSC(=O)N1` [Thiazolidine-2,4-dione] yielded a Ki at MsCI4 [1] of 137 ± 15.9 µM.
For `Cc1cn([C@H]2C[C@H](O)[C@@H](CO)O2)c(=O)[nH]c1=O` [Thymidine], on MsCI4 [1], the Ki came out at 204 ± 34.5 µM. In addition, the “binding to MsCI4” value at MsCI4 [1] (FRET assay) is given as “very low but measurable affinities”.
For `Cc1c[nH]c(=O)[nH]c1=O` [Thymine, 5-Methylpyrimidine-2,4-dione], in that order: 478 ± 41.6 µM and “very low but measurable affinities”.
`O=c1cc[nH]c(=O)[nH]1` [Uracil, Pyrimidine-2,4-dione] returned a Ki on MsCI4 [1] of 35 ± 5.1 µM.
On to `O=c1ccn([C@@H]2O[C@H](CO)[C@@H](O)[C@H]2O)c(=O)[nH]1` [Uridine], for which, at MsCI4 [1], affinity was put at a Ki of 13 ± 1.9 µM. The “teratogenic effect on fin formation in zebrafish” value in series [4] (zebrafish) is reported as “same effect on fin formation”.
As for `O=C1CCCN1` [γ-Butyrolactam, Pyrrolidin-2-one], at MsCI4 [1], the Ki worked out at 57 ± 11.6 µM.
Molecule `O=C1CCCO1` [γ-Butyrolactone] displayed a Ki at MsCI4 [1] of over 1000 µM.
Turning to `O=C1CCCCN1` [δ-Valerolactam, Piperidin-2-one], the affinity at MsCI4 [1], expressed as Ki, was 146 ± 20.3 µM.
`O=C1CCCCCN1` [ε-Caprolactam] yielded a Ki on MsCI4 [1] of over 1000 µM. Further, the “binding to MsCI4” value at MsCI4 [1] (FRET assay) is on record as “no detectable binding”.
In the case of N-(2-Hydroxypropyl)acetamide, the “binding to MsCI4” value on MsCI4 [1] (FRET assay) was “could not detect any binding”. On MsCI4 [1] (setting [5]), the Ki is over 1000 µM.
Take Pyrrol-2,5-dione [Maleimide]: the Ki on MsCI4 [1] (setting [5]) turned out to be 35 ± 3.1 µM.
